# Results taken from US5300498A, “6-piperazinyl-1H-pyrazolo[3,4-b]pyridine-3-carboxylic acids, esters, amides and related compounds” (Hoechst-Roussel Pharmaceuticals Incorporated, priority 1993, dated 1994).
# Counter-ions that a name gives are not always drawn.
# Tested on: serotonin (5HT) uptake
# Assay: [^3 H]-Serotonin Uptake in Rat Whole Brain and Hypothalamic Synaptosomes
# Format: biochemical, rat (male CR Wistar)
# Conditions: 50 nM [^3 H]-5HT, 37° C., 5 minutes, read-out: Inhibition of Serotonin Uptake, IC50
# Protocol: [^3 H]-Serotonin Uptake in Rat Whole Brain and Hypothalamic Synaptosomes
# A. Animals: Male CR Wistar rats (100-125 g).
# 1. Krebs-Henseleit Bicarbonate Buffer, pH 7.4 (KHBB):
# Prior to use add to 200 ml, per assay:
# Make a 4 liter batch, containing the following salts:
# 3. Sucrose solution: 0.32M sucrose containing 5 mM HEPES and 0.1 mM EDTA; pH to 7.3 using Tris base.
# 4. A 0.1 mM stock solution of serotonin creatinine SO4 is made up in 0.01N HCl. This is used to dilute the specific activity of the radiolabeled 5HT.
# The final desired concentration of [^3 H]-5HT in the assay is 50 nM. The dilution factor is 0.8.
# 6. For most assays, a 0.5 mM stock solution of the test compound is made up initially in either 10 μl of glacial acetic acid, 100 μl DMSO or 10 μl of the recrystallization solvent, to which is added approximately 10 ml of distilled water. Compounds are initially screened in duplicate at 3 concentrations (10^-8, 10^-7 and 10^-6 M) made up in water.
# 43, 1114 (1984) and Dunkley, P. R., Jarvie, R. E., Heath, J. W., Kidd, G. J., Rostas, J. A. P. Brain Research 372, 115 (1986). Male Wistar rats are decapitated and the brain rapidly removed. […] The following procedures are performed on ice. Homogenization should be done with 4-5 up and down strokes at medium speeds (setting 4.5 to 5) to minimize synaptosome lysis.
# Tubes are carefully removed, and the top layer and the top part of the middle (red) layer are discarded using a pasteur pipette. […] This is carefully removed, placed in a centrifuge tube, diluted with KHBB and spun at 21,000 g (13,000 rpm, Sorvall SS-34 rotor).
# 200 μl of the tissue suspension are added to each of 24 tubes (at a time) containing the 20 μl of vehicle or drug on ice. Three minutes later, 800 μl of KHBB containing [^3 H]-5HT are added, and the tubes are vortexed. […] Uptake is terminated by filtration through GF/B filter strips using a Brandel cell harvester (filter strips are presoaked in ice cold filtration buffer). Tubes are washed once with 5 ml of ice cold filtration buffer.
row,SMILES,IC50
1,"N#Cc1n[nH]c2nc(N3CCCNCC3)ccc12 [6-(Hexahydro-1H-1,4-diazepin-1-yl)-1H-pyrazolo[3,4-b]pyridine-3-carbonitril]",0.349 µM
2,"N#Cc1n[nH]c2nc(N3CCNCC3)ccc12 [6-(1-Piperazinyl)-1H-pyrazolo[3,4-b]pyridine-3-carbonitrile]",0.696 µM
3,"CN1CCN(c2ccc3c(C#N)n[nH]c3n2)CC1 [6-(4-Methyl-1-piperazinyl)-1H-pyrazolo[3,4-b]pyridine-3-carbonitrile]",0.764 µM
4,"CN1CCN(c2ccc3cn[nH]c3n2)CC1 [6-(4-Methyl-1-piperazinyl)-1H-pyrazolo[3,4-b]pyridine]",8.26 µM
5,"CN1CCN(c2ccc3cnn(C)c3n2)CC1 [1-Methyl-6-(4-methyl-1-piperazinyl)-1H-pyrazolo[3,4-b]pyridine]",3.43 µM
6,"NC(=O)c1n[nH]c2nc(N3CCNCC3)ccc12 [6-(1-Piperazinyl)-1H-pyrazolo[3,4-b]pyridine-3-carboxamide hydrochloride hydrate]",7.69 µM
